The values below come from PMC6778101 (Nature Communications, 2019).

Ends that are not written are not given here. Peptide text beside a SMILES is read from it.

Data set [1] has as its system Staphylococcus aureus subsp. aureus ATCC 29213. Format: cell-based. To be noted: broth dilution, 37 °C, 18 h. How it is done:
(§1) Unless otherwise indicated, we used E. coli K-12 BW25113 in all high-throughput experiments. To investigate the impact of mutation rate on evolution of AMP resistance, we initiated laboratory evolution with a mutator strain E. coli mutD5 that carries mutations in the dnaQ gene (L73W and A164V).
(§2) MICs were determined using a standard serial broth dilution technique. Briefly, 11-step serial dilutions were prepared in 96-well microtiter plates with three replicates per strain and antimicrobial compound. Each experiment was repeated at least twice. 5 × 10^5 cells/mL were inoculated into each well, and the plates were incubated at 30 °C in case of E. coli K-12 BW25113, and its antibiotic and AMP-adapted lines, or 37 °C in case of the other bacterial species. Plates were shaken at 300 r.p.m. during incubation for 24 and 18 h, respectively. Cell growth was monitored by measuring the optical density (OD600 value, Biotek Synergy 2 microplate reader was used for this purpose). […] Relative MIC was calculated as follows: MICrelative = MICevolved/MICcontrol.

Data set [2] concerns Klebsiella pneumoniae NCTC 13440. Format: cell-based. To be noted: broth dilution, 37 °C, 18 h. How it is done: as §1, §2
The subject of data set [3] is Escherichia coli ATCC 35218. Format: cell-based. The conditions noted are these: broth dilution, 37 °C, 18 h. How it is done: as §1, §2
Data set [4] relates to Klebsiella pneumoniae subsp. pneumoniae ATCC 700603. Format: cell-based. The conditions noted are these: broth dilution, 37 °C, 18 h. How it is done:
as §1, §2

Data set [5] deals with Methicillin-resistant Staphylococcus aureus subsp. aureus ATCC 43300. Format: cell-based. The conditions noted are these: broth dilution, 37 °C, 18 h. How it is done: as §1, §2
Data set [6] relates to K. pneumoniae ATCC 10031. Type of data set: cell-based, Klebsiella pneumoniae. The conditions noted are these: Klebsiella pneumoniae ATCC 10031; broth dilution, 37 °C, 18 h. How it is done: as §1, §2
Data set [7] relates to Human red blood cells. The conditions noted are these: previous work; cited from earlier work. An excerpt: Finally, our work identifies that TPII and CP1 are promising candidates for future therapeutic considerations, for the following reasons. They are active against a wide range of bacterial pathogens with a relatively high activity/toxicity (ATI) index. We note however, that existing data on the toxicity of the tachyplesin antimicrobial family are controversial[48],[59]–[61]. […] Furthermore, evolution of resistance against these AMPs is improbable in E. coli. We propos ...

The test system of data set [8] is E. coli K-12 BW25113 carrying single mutations. Description: MIC change in single-mutation strains (basS L194R, mlaD a342del, waaY M1†). Type of data set: cell-based, Escherichia coli.
The subject of data set [9] is E. coli ATCC 25922, S. enterica LT2, K. pneumoniae ATCC 10031, A. baumannii ATCC 17978. Description: Laboratory evolution in pathogenic bacteria, statements for all four pathogens together. To be noted: all four pathogenic species. Format: cell-based. An excerpt:
(§3) The tested pathogens initially sensitive to the AMPs and the antibiotics included Escherichia coli (ATCC® 25922™) (abbreviated as E. coli ATCC 25922), Salmonella enterica subsp. enterica serovar Typhimurium LT2 (abbreviated as S. enterica LT2), Klebsiella pneumoniae subsp. pneumoniae (Schroeter) Trevisan (ATCC® 10031™) (abbreviated as K. pneumoniae ATCC 10031) and Acinetobacter baumannii Bouvet and Grimont (ATCC® 17978™) (abbreviated as A. baumannii ATCC 17978).
(§4) The evolutionary protocol was designed to avoid population extinction and to ensure that populations with the highest level of resistance were propagated further. Starting with a subinhibitory drug concentration (Supplementary Data 8), resulting in ~50% growth inhibition, 10 parallel populations per drug were allowed to grow in Minimal Salts medium for 72 h and 300 r.p.m. E. coli K-12 BW25113 and E. coli mutD5 populations were incubated at 30 °C, while E. coli ATCC 25922, S. enterica LT2, K. pneumonia ATCC 10031, and A. baumannii ATCC 17978 were incubated at 37 °C. […] Prior to each transfer, cell growth was monitored by measuring the optical density at 600 nm (OD600 value, Biotek Synergy 2 microplate reader). Only populations with the highest drug concentration (and reaching OD600 > 0.2) were selected for further evolution. A chess-board layout was used on the plate to monitor potential cross-contamination events. […] E. coli mutD5 was adapted to TPII, also in 10 parallel evolving populations.
(§5) MICs were determined using a standard serial broth dilution technique. Briefly, 11-step serial dilutions were prepared in 96-well microtiter plates with three replicates per strain and antimicrobial compound. Each experiment was repeated at least twice. […] Cell growth was monitored by measuring the optical density (OD600 value, Biotek Synergy 2 microplate reader was used for this purpose). […] Relative MIC was calculated as follows: MICrelative = MICevolved/MICcontrol.

Data set [10] relates to K. pneumoniae ATCC 10031. Kind of data set: Laboratory evolution of resistance, MIC fold change of adapted lines. Type of data set: cell-based. To be noted: Klebsiella pneumoniae ATCC 10031; parallel line 1 of 10.
Description: as §3, §4, §5

Data set [11] relates to E. coli ATCC 25922. The description is as above. Type of data set: cell-based. The conditions noted are these: Escherichia coli ATCC 25922; parallel line 1 of 10.
Description: as §3, §4, §5

For data set [12], the system named is A. baumannii ATCC 17978. The data set is described as above. Format: cell-based. The conditions noted are these: Acinetobacter baumannii ATCC 17978; parallel line 1 of 10.
Description: as §3, §4, §5

For “SWLSKTAKKLENSAKKRISEGIAIAIQGGPR [CP1, Cecropin P1]”, the MIC in data set [1] is above 9.6 µM; in data set [2], 1.2 µM; in [3] it was 1.2 µM; in [4], 2.4 µM; in data set [5] it was above 9.6 µM; in [6], 1.2 to 2.4 µM. In data set [7], the “toxicity or haemolytic activity (in words)” value is listed as “negligible toxicity or haemolytic activity”.

Regarding `CC[C@H](C)[C@@H]1NC(=O)CNC(=O)[C@H](CCCNC(=N)N)NC(=O)[C@H](Cc2ccc(O)cc2)NC(=O)[C@@H]2CSSC[C@H](NC1=O)C(=O)N[C@@H](Cc1ccc(O)cc1)C(=O)N[C@@H](CCCNC(=N)N)C(=O)N[C@@H](CCCCN)C(=O)N[C@H](C(=O)N[C@@H](CCCNC(=N)N)C(N)=O)CSSC[C@H](NC(=O)[C@H](Cc1c[nH]c3ccccc13)NC(=O)[C@@H](N)CCCNC(=N)N)C(=O)N[C@@H](Cc1ccccc1)C(=O)N[C@@H](CCCNC(=N)N)C(=O)N[C@@H](C(C)C)C(=O)N2` [TPII, tachyplesin II] (HELM PEPTIDE1{R.W.C.F.R.V.C.Y.R.G.I.C.Y.R.K.C.R.[am]}$PEPTIDE1,PEPTIDE1,3:R3-16:R3|PEPTIDE1,PEPTIDE1,7:R3-12:R3$$$V2.0; N-terminus and C-terminus assumed; bridges inferred), the “resistance conferred by single mutations basS L194R, mlaD a342del, waaY M1† (in words)” value in data set [8] (mutations inserted individually into E. coli K-12 BW25113) is recorded as “no resistance”. The “Relative MIC compared to the wild-type” value in data set [8] (strain with reinserted mutation basS L194R (CTG→CGG)), in data set [8] (strain with reinserted mutation mlaD a342del) and in [8] (strain with reinserted mutation waaY M1† (ATG→CTG)) was 1.0 throughout. Moreover, in data set [9], the “resistance after laboratory evolution in pathogens (in words)” value is recorded as “very low levels”. The “MIC fold change following 20 transfers” value came out at 5.6 fold in [10], 4.8 fold in data set [11] and 4.3 fold in data set [12].
